In patent US20090221655A1, “ANTIBACTERIAL AGENTS” (Pitzer, Inc., priority 2006, published 2009):
In brackets after ≈: the same amount, converted by molar mass.

Tests used:
Assay type in all cases: cell-based
[1] = system: S. aureus UC-76 SA-1; assay: in vitro antibacterial activity (MIC), S. aureus; settings: Staphylococcus aureus, UC76; strain UC-76 SA-1; MIC = lowest concentration preventing macroscopically visible growth; read-out: in vitro antibacterial activity MIC5 S. aureus UC-76 SA-1
Text: (§1) The in vitro antibacterial activity of the compounds of the present invention may be assessed by following procedures recommended in (1) National Committee for Clinical Laboratory Standards (January 2003), Methods for dilution antimicrobial tests for bacteria that grow aerobically, Approved Standard (6th ed), M7-A6, NCCLS, Wayne, Pa.; (2) National Committee for Clinical Laboratory Standards (March 2001), Methods for antimicrobial susceptibility testing of anaerobic bacteria, Approved Standard (5th ed), M11-A4, NCCLS, Wayne, Pa.; (3) National Committee for Clinical Laboratory Standards (Jan. 2003), MIC testing supplemental tables, M100-S13 (for use with M7-A6), NCCLS, Wayne, Pa.; and (4) Murray P R, Baron E J, Jorgensen J H, et al. Manual of Clinical Microbiology (8th ed) Washington, D.C.: American Society for Microbiology Press, 2003. The antibacterial activity can be presented in the form of MIC value. The MIC value is the lowest concentration of drug, which prevented macroscopically visible growth under the conditions of the test.

[2] = system: S. pneumoniae SV1 SP-3; assay: in vitro antibacterial activity (MIC), S. pneumoniae; settings: Streptococcus pneumoniae, SV1SP3; strain SV1 SP-3; MIC = lowest concentration preventing macroscopically visible growth; read-out: in vitro antibacterial activity MIC5 S. pneumoniae SV1 SP-3
Text: as §1

[3] = system: E. faecalis MGH-2 EF 1-1; assay: in vitro antibacterial activity (MIC), E. faecalis; settings: Enterococcus faecalis, MGH2EF11; strain MGH-2 EF 1-1; MIC = lowest concentration preventing macroscopically visible growth; read-out: in vitro antibacterial activity MIC5 E. faecalis MGH-2 EF 1-1
Text: as §1

Compound	MIC [1] [µg/mL]	MIC [2] [µg/mL]	MIC [3] [µg/mL]
CCC(=O)NC[C@H]1CN(c2ccc3c(C)noc3c2)C(=O)O1 [Example 2, (S)—N-[3-(3-methyl-benzo[d]isoxazol-6-yl)-2-oxo-oxazolidin-5-ylmethyl]-propionamide]	2 (≈ 6.59 µM)	2 (≈ 6.59 µM)	4 (≈ 13.2 µM)
Cc1noc2cc(N3C[C@H](Cn4ccnn4)OC3=O)ccc12 [Example 4, (R)-3-(3-methyl-benzo[d]isoxazol-6-yl)-5-[1,2,3]triazol-1-ylmethyl-oxazolidin-2-one]	4 (≈ 13.4 µM)	2 (≈ 6.68 µM)	4 (≈ 13.4 µM)
CONC(=O)[C@H]1CN(c2ccc3c(C)noc3c2)C(=O)O1 [Example 8, (R)-3-(3-methyl-benzo[d]isoxazol-6-yl)-2-oxo-oxazolidine-5-carboxylic acid methoxy-amide]	4 (≈ 13.7 µM)	8 (≈ 27.5 µM)	4 (≈ 13.7 µM)
COC(=O)NC[C@H]1CN(c2ccc3c(C)noc3c2)C(=O)O1 [Example 3, (S)-[3-(3-methyl-benzo[d]isoxazol-6-yl)-2-oxo-oxazolidin-5-ylmethyl]-carbamic acid methyl ester]	4 (≈ 13.1 µM)	2 (≈ 6.55 µM)	4 (≈ 13.1 µM)
CC(=O)NC[C@H]1CN(c2ccc3c(C)noc3c2)C(=O)O1 [Example 1, (S)—N-[3-(3-methyl-benzo[d]isoxazol-6-yl)-2-oxo-oxazolidin-5-ylmethyl]-acetamide]	2 (≈ 6.91 µM)	1 (≈ 3.46 µM)	2 (≈ 6.91 µM)
CCONC(=O)[C@H]1CN(c2ccc3c(C)noc3c2)C(=O)O1 [Example 9, (R)-3-(3-methyl-benzo[d]isoxazol-6-yl)-2-oxo-oxazolidine-5-carboxylic acid ethoxy-amide]	4 (≈ 13.1 µM)	8 (≈ 26.2 µM)	4 (≈ 13.1 µM)
Cc1noc2cc(N3C[C@H](C(N)=O)OC3=O)ccc12 [Example 6, (R)-3-(3-methyl-benzo[d]isoxazol-6-yl)-2-oxo-oxazolidine-5-carboxylic acid amide]	4 (≈ 15.3 µM)	4 (≈ 15.3 µM)	8 (≈ 30.6 µM)
CNC(=O)[C@H]1CN(c2ccc3c(C)noc3c2)C(=O)O1 [Example 7, (R)-3-(3-methyl-benzo[d]isoxazol-6-yl)-2-oxo-oxazolidine-5-carboxylic acid methylamide]	4 (≈ 14.5 µM)	4 (≈ 14.5 µM)	4 (≈ 14.5 µM)
